{
  "source": "patent US20120040914A1",
  "about": "“ENHANCING EFFECTIVENESS OF GLIAL CANCER THERAPIES” (priority 2010, published 2012)",
  "key": {"[1]": {"tested_on": "putative mAR in A172 human glioblastoma cells", "details": "unlabeled DHT as displacer, relative to T-BSA incubated A172 cells", "description": "The population histograms depict the frequency distribution of the cells labeled with a fluorescently tagged, BSA-conjugated testosterone (Testosterone-BSA-FITC, abbreviated as T-BSA), or T-BSA in the presence of unlabeled DHT, serving as the “displacer”. […] Also note that the x-axis is on a log scale."}, "[2]": {"tested_on": "A172 human glioblastoma cell line", "experiment": "cells", "details": "A 172, read-out: reduction in cell viability (calcein fluorescence)"}, "hippocampal HT-22 cells": {"tested_on": "hippocampal HT-22 cells", "experiment": "glutamate-induced cytotoxicity, Calcein-am assay", "type": "cell-based"}, "C6 glioma cells": {"tested_on": "C6 glioma cells", "experiment": "salinomycin sensitivity, cell viability by Calcein-am assay", "type": "cell-based", "details": "10 microM TBSA, 48 hrs, leftward shift of the concentration response", "method": "C6 glioma cells were treated with increasing concentrations of the cancer therapeutic, salinamycin, a drug with a high profile of selectivity for cancer stem cells. […] The data are presented as a percentage of cell viability seen in non-TBSA/salinamycin treated cells. The group labeled as Triton-X serves as our cell death-inducing control."}, "[3]": {"tested_on": "A172 human glioblastoma cells", "experiment": "sensitivity to ionizing radiation, Calcein-am assay", "type": "cell-based", "details": "total dose of 5 Gy at 6.3 Gy/min, 6 hrs after radiation", "method": "Cell viability was measured using the Calcein-am assay following 6 hrs after the administration of the dose of ionizing radiation. The data are presented as a percentage of cell viability seen in the non-radiated (black bars) or radiated (checkered bars) in the absence of T-BSA."}, "[4]": {"tested_on": "Temozolomide-resistant T98g human glioblastoma cells", "experiment": "sensitivity to ionizing radiation, Calcein-am assay", "type": "cell-based"}},
  "data": [
    {"compound": "C[C@]12CCC(=O)C[C@@H]1CC[C@@H]1[C@@H]2CC[C@]2(C)[C@@H](O)CC[C@@H]12", "note": "[DHT, Dihydrotestosterone]", "values": [
      {"measurement": "displacement of Testosterone-BSA-FITC (T-BSA) binding, fluorescence intensity", "setting": "[1]", "value": "clear leftward shift of fluorescence intensity"}
    ]},
    {"compound": "Cn1nnc2c(C(N)=O)ncn2c1=O", "note": "[TMZ, Temozolomide]", "values": [
      {"measurement": "cytotoxicity at 5000 µM", "setting": "[2]", "value": "~35", "unit": "%"}
    ]},
    {"compound": "TBSA: BSA-conjugated testosterone, membrane impermeable androgen, ligand/activator of the membrane androgen receptor (mAR)", "values": [
      {"measurement": "cell viability, by itself", "setting": "hippocampal HT-22 cells; TBSA alone, Calcein-am assay", "value": "had no effect on cell viability"},
      {"measurement": "effect on glutamate-induced cell death", "setting": "hippocampal HT-22 cells; TBSA plus glutamate", "value": "protected against glutamate-induced cytotoxicity"},
      {"measurement": "effect on sensitivity to salinamycin (concentration response of cell viability)", "setting": "C6 glioma cells", "value": "increased the sensitivity of the cells to salinamycin"},
      {"measurement": "sensitization to ionizing radiation (cell viability)", "setting": "[3]", "value": "enhanced the sensitivity of the A172 glioblastoma cells to the cytotoxic effects of ionizing radiation"},
      {"measurement": "sensitization to ionizing radiation (cell viability)", "setting": "[4]; 5 Gy, 100 nM-40 microM TBSA, 6 hr or 24 hr post radiation", "value": "ineffective at sensitizing the cells to ionizing radiation"},
      {"measurement": "sensitization to ionizing radiation (cell viability)", "setting": "[4]; 10 Gy", "value": "effective at sensitizing these cells to ionizing radiation"},
      {"measurement": "lowest concentration at which the sensitizing effect was noted", "setting": "[4]; 20 Gy", "value": 1, "unit": "µM"}
    ]}
  ]
}
